Measurements as given in patent publication US12077503B2, “Substituted cyclic amides and their use as herbicides” (FMC CORPORATION, priority 2015, dated 2024).

Columns and labels:
Assay type in all cases: in vivo
soybean (Glycine max) [1] = assay: Test E preemergence; conditions: scale 0 to 100
From the text: (§1) Seeds of plant species selected from corn (Zea mays), soybean (Glycine max), velvetleaf (Abutilon theophrasti), lambsquarters (Chenopodium album), poinsettia, wild (wild poinsettia, Euphorbia heterophylla), pigweed, palmer (palmer pigweed, Amaranthus palmeri), waterhemp (common waterhemp, Amaranthus rudis), surinam grass (Brachiaria decumbens), crabgrass, large (large crabgrass, Digitaria sangumnalis), crabgrass, Brazil (Brazilian crabgrass, Digitaria horizontalis), Panicum, fall (fall Panicum, Panicum dichotomiflorum), foxtail, giant (giant foxtail, Setaria faberii), foxtail, green (green foxtail, Setaria viridis), goosegrass (Eleusine indica), johnsongrass (Sorghum halepense), ragweed (common ragweed, Ambrosia elatior), barnyardgrass (Echinochloa crus-galli), sandbur (southern sandbur, Cenchrus echinatus), arrowleaf Sida (Sida rhombifolia), ryegrass, Italian (Italian ryegrass, Lolium multiflorum), dayflower, VA (Virginia dayflower, Commelina virginica), field bindweed (Convolvulus arvensis), morningglory (Ipomoea coccinea), nightshade (eastern black nightshade, Solanum ptycanthum), Kochia (Kochia scoparia), nutsedge, yellow (yellow nutsedge, Cyperus esculentus), horseweed (Conyza canadensis), and beggarticks (hairy beggarticks, Bidens pilosa), were planted into a silt loam soil and treated preemergence with test chemicals formulated in a non-phytotoxic solvent mixture which included a surfactant.
(§2) At the same time, plants selected from these crop and weed species were planted in pots containing Sunshine Redi-Earth planting medium comprising spaghnum peat moss, vermiculite, starter nutrients and dolomitic limestone and treated with postemergence applications of a test chemical formulated in the same manner. Plants ranged in height from 2 to 18 cm (1- to 4-leaf stage) for postemergence treatments. Treated plants and controls were maintained in a greenhouse for 14 to 21 d, after which time all species were compared to controls and visually evaluated. Plant response ratings, summarized in Table E, are based on a scale of 0 to 100 where 0 is no effect and 100 is complete control. A dash (-) response means no test result.

[2] = system: crabgrass, large (large crabgrass, Digitaria sangumnalis); assay: Test E preemergence; conditions: scale 0 to 100
From the text: as §1, §2

[3] = system: horseweed (Conyza canadensis); assay: Test E preemergence; conditions: scale 0 to 100
From the text: as §1, §2

[4] = system: barnyardgrass (Echinochloa crus-galli); assay: Test E preemergence; conditions: scale 0 to 100
From the text: as §1, §2

[5] = system: foxtail, giant (giant foxtail, Setaria faberii); assay: Test E preemergence; conditions: scale 0 to 100
From the text: as §1, §2

[6] = system: Panicum, fall (fall Panicum, Panicum dichotomiflorum); assay: Test E preemergence; conditions: scale 0 to 100
From the text: as §1, §2

[7] = system: lambsquarters (Chenopodium album); assay: Test E preemergence; conditions: scale 0 to 100
From the text: as §1, §2

[8] = system: pigweed, palmer (palmer pigweed, Amaranthus palmeri); assay: Test E preemergence; conditions: scale 0 to 100
From the text: as §1, §2

[9] = system: sandbur (southern sandbur, Cenchrus echinatus); assay: Test E preemergence; conditions: scale 0 to 100
From the text: as §1, §2

[10] = system: foxtail, green (green foxtail, Setaria viridis); assay: Test E preemergence; conditions: scale 0 to 100
From the text: as §1, §2

[11] = system: ragweed (common ragweed, Ambrosia elatior); assay: Test E preemergence; conditions: scale 0 to 100
From the text: as §1, §2

soybean (Glycine max) [12] = assay: Test C postemergence; conditions: scale 0 to 100, 0 no effect, 100 complete control
Procedure, shortened: (§3)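 After treatment with surfactant-containing formulations, either preemergence to seeds in loam-sand soil or postemergence to potted seedlings at 2–18 cm, plants were kept 13–15 d in a greenhouse. Observers then compared them with controls and assigned ratings, 0 signifying no effect and 100 complete control.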

[13] = system: oilseed rape (Brassica napus); assay: Test C postemergence; conditions: scale 0 to 100, 0 no effect, 100 complete control
Procedure, shortened: as §3

[14] = system: pigweed (Amaranthus retroflexus); assay: Test C postemergence; conditions: scale 0 to 100, 0 no effect, 100 complete control
Procedure, shortened: as §3

[15] = system: Galium (catchweed bedstraw, Galium aparine); assay: Test C postemergence; conditions: scale 0 to 100, 0 no effect, 100 complete control
Procedure, shortened: as §3

CN1CC(c2cccc(OC(F)(F)C(F)F)c2)C(C(=O)Nc2cccc(F)c2F)C1=O (stereo not drawn) [Compound 392]
Plant response rating: Soybean (soybean (Glycine max) [1]; 31 g ai/ha): 0 | Plant response rating: Soybean (soybean (Glycine max) [1]; 62 g ai/ha): 0 | Plant response rating: Soybean (soybean (Glycine max) [1]; 125 g ai/ha): 20 | Plant response rating: Soybean (soybean (Glycine max) [1]; 250 g ai/ha): 25 | Plant response rating: Crabgrass, Large ([2]; 31 g ai/ha): 90 | Plant response rating: Crabgrass, Large ([2]; 62 g ai/ha): 95 | Plant response rating: Crabgrass, Large ([2]; 125 g ai/ha): 98 | Plant response rating: Crabgrass, Large ([2]; 250 g ai/ha): 98 | Plant response rating: Horseweed ([3]; 31 g ai/ha): 0 | Plant response rating: Horseweed ([3]; 62 g ai/ha): 0 | Plant response rating: Horseweed ([3]; 125 g ai/ha): 98 | Plant response rating: Horseweed ([3]; 250 g ai/ha): 100 | Plant response rating: Barnyardgrass ([4]; 31 g ai/ha): 85 | Plant response rating: Barnyardgrass ([4]; 62 g ai/ha): 70 | Plant response rating: Barnyardgrass ([4]; 125 g ai/ha): 90 | Plant response rating: Barnyardgrass ([4]; 250 g ai/ha): 95 | Plant response rating: Foxtail, Giant ([5]; 31 g ai/ha): 90 | Plant response rating: Foxtail, Giant ([5]; 62 g ai/ha): 95 | Plant response rating: Foxtail, Giant ([5]; 125 g ai/ha): 98 | Plant response rating: Foxtail, Giant ([5]; 250 g ai/ha): 98 | Plant response rating: Panicum, Fall ([6]; 31 g ai/ha): 95 | Plant response rating: Panicum, Fall ([6]; 62 g ai/ha): 98 | Plant response rating: Panicum, Fall ([6]; 125 g ai/ha): 98 | Plant response rating: Panicum, Fall ([6]; 250 g ai/ha): 98 | Plant response rating: Lambsquarters ([7]; 31 g ai/ha): 75 | Plant response rating: Lambsquarters ([7]; 62 g ai/ha): 75 | Plant response rating: Lambsquarters ([7]; 125 g ai/ha): 98 | Plant response rating: Lambsquarters ([7]; 250 g ai/ha): 100 | Plant response rating: Pigweed, Palmer ([8]; 31 g ai/ha): 0 | Plant response rating: Pigweed, Palmer ([8]; 62 g ai/ha): 20 | Plant response rating: Pigweed, Palmer ([8]; 125 g ai/ha): 35 | Plant response rating: Pigweed, Palmer ([8]; 250 g ai/ha): 90 | Plant response rating: Sandbur ([9]; 31 g ai/ha): 0 | Plant response rating: Sandbur ([9]; 62 g ai/ha): 60 | Plant response rating: Sandbur ([9]; 125 g ai/ha): 60 | Plant response rating: Sandbur ([9]; 250 g ai/ha): 90 | Plant response rating: Foxtail, Green ([10]; 31 g ai/ha): 65 | Plant response rating: Foxtail, Green ([10]; 62 g ai/ha): 90 | Plant response rating: Foxtail, Green ([10]; 125 g ai/ha): 95 | Plant response rating: Foxtail, Green ([10]; 250 g ai/ha): 98 | Plant response rating: Ragweed ([11]; 31 g ai/ha): 0 | Plant response rating: Ragweed ([11]; 62 g ai/ha): 0 | Plant response rating: Ragweed ([11]; 125 g ai/ha): 0 | Plant response rating: Ragweed ([11]; 250 g ai/ha): 65

CN1CC(c2ccc(F)c(F)c2)C(C(=O)Nc2ccccc2S(C)(=O)=O)C1=O (stereo not drawn) [Compound 640]
Plant response rating, Soybean (soybean (Glycine max) [12]; 31 g ai/ha): 65 | Plant response rating, Soybean (soybean (Glycine max) [12]; 62 g ai/ha): 10 | Plant response rating, Soybean (soybean (Glycine max) [12]; 125 g ai/ha): 10 | Plant response rating, Soybean (soybean (Glycine max) [12]; 250 g ai/ha): 5 | Plant response rating, Oilseed Rape ([13]; 31 g ai/ha): 20 | Plant response rating, Oilseed Rape ([13]; 62 g ai/ha): 15 | Plant response rating, Oilseed Rape ([13]; 125 g ai/ha): 50 | Plant response rating, Oilseed Rape ([13]; 250 g ai/ha): 60 | Plant response rating, Pigweed ([14]; 31 g ai/ha): 10 | Plant response rating, Pigweed ([14]; 62 g ai/ha): 35 | Plant response rating, Pigweed ([14]; 125 g ai/ha): 35 | Plant response rating, Pigweed ([14]; 250 g ai/ha): 55 | Plant response rating, Galium ([15]; 31 g ai/ha): 50 | Plant response rating, Galium ([15]; 62 g ai/ha): 55 | Plant response rating, Galium ([15]; 125 g ai/ha): 60 | Plant response rating, Galium ([15]; 250 g ai/ha): 65
